System: NFAT
Assay: Podocyte-NFAT reporter assay (luciferase)
Format: cell-based, mouse
Conditions: for baseline NFAT activity: wild type (wt) podocytes, single inhibitor, FIG. 8
Text: Podocyte-NFAT reporter assays: A podocyte cell line that stably expressed pGL4.30 reporter plasmid (Promega) was generated. pGL4.30 includes the luc2P firefly luciferase gene under the control of the NFAT response element. For LPS treatments both wt and stable TRPC6 knockdown podocyte cell line were transiently transfected with the pGL4.30 and pGL4.74 reporter plasmids (Promega). pGL4.74 includes the hRluc Renilla luciferase gene under the control of the constitutive HSV-TK promoter, serving as an internal control for normalization of the results. Cells were seeded in 96 well plates in standardized cell number and differentiated for three weeks prior to transfection and treatments. Stable cell lines were probed with BRIGHT-GLO Luciferase Assay System (Promega), transiently transfected cells were assayed with DUAL-GLO Luciferase Assay System (Promega). Luminescence was measured on a Molecular Devices luminescence microplate reader SpectraMax L. All experiments were carried out in octuplicate per condition and repeated in three independent experiments.

Row | Compound | baseline NFAT activity | NFAT activity after pretreatment with the substance (wt podocytes, versus low baseline, FIG. 6A)
1 | O=S(=O)(NCCNC/C=C/c1ccc(Br)cc1)c1cccc2cnccc12 [H-89] | reduction | –
2 | CN([C@@H](Cc1ccc(OS(=O)(=O)c2cccc3cnccc23)cc1)C(=O)N1CCN(c2ccccc2)CC1)S(=O)(=O)c1cccc2cnccc12 [KN-62] | reduction | –
3 | lipopolysaccharide [LPS] | – | strongly increased
